The record followed here is ChEMBL document CHEMBL1135003, “Synthesis of aglycon analogues of sarmentosin and their bioactivity of lymphocyte proliferation” (2002).

Type in all cases: functional
Experiment [1] is described as follows: In vitro effect on the proliferation of T lymphocytes of mouse splenocytes at 2 umol/L to show the cell-mediated immunity by [3H]thymidine incorporation. In general terms: Dividing cells build labelled thymidine or BrdU into new DNA.
A short description of experiment [2]: In vitro effect on the proliferation of T lymphocytes of mouse splenocytes at 20 umol/L to show the cell-mediated immunity by [3H]thymidine incorporation.
A short description of experiment [3]: In vitro effect on the proliferation of T lymphocytes of mouse splenocytes at 0.2 umol/L to show the cell-mediated immunity by [3H]thymidine incorporation.
A short description of experiment [4]: In vitro effect on the proliferation of B lymphocytes of mouse splenocytes at 0.2 umol/L to show the antibody formation by [3H]thymidine incorporation.
Experiment [5] in a line: In vitro effect on the proliferation of B lymphocytes of mouse splenocytes at 20 umol/L to show the antibody formation by [3H]thymidine incorporation.
The nature of experiment [6]: In vitro effect on the proliferation of B lymphocytes of mouse splenocytes at 2.0 umol/L to show the antibody formation by [3H]thymidine incorporation.

As to `N#C/C(=C\COC(=O)c1ccccc1)CO`, the Activity in experiment [1] is listed as 68%; in experiment [2], 23%; in experiment [3] it was 97%; in experiment [4] it was 137%; in experiment [5], 67%; in experiment [6], 73%.

As to `N#C/C(=C\COC(=O)/C=C/c1ccccc1)CO`, the Activity in experiment [1] is reported as 62%; in experiment [2], 38%; in experiment [3] it was 80%; in experiment [4], 96%; in experiment [5] it was 20%; in experiment [6], 69%.

As to `N#C/C(=C\COC(=O)c1ccc(F)cc1Cl)CO`, the Activity in experiment [1] was found to be 98%; in experiment [2] it was 29%; in experiment [3], 123%; in experiment [4], 151%; in experiment [5], 113%; in experiment [6] it was 151%.

As to `COc1ccc(COC/C=C(\C#N)CO)cc1`, the Activity in experiment [1] worked out at 54%; in experiment [2] it was 37%; in experiment [3], 93%; in experiment [4], 169%; in experiment [5], 38%; in experiment [6], 71%.

As to `N#C/C(=C\COC(=O)c1ccc(Cl)cc1Cl)CO`, the Activity in experiment [1] turned out to be 94%; in experiment [2] it was 131%; in experiment [3] it was 119%; in experiment [4], 68%; in experiment [5], 73%; in experiment [6], 69%.

For the compound `N#C/C(=C\COc1ccccc1)CO`, the Activity in experiment [1] is on record as 113%; in experiment [2], 131%; in experiment [3] it was 100%; in experiment [4], 51%; in experiment [5], 45%; in experiment [6], 48%.

Regarding `COc1ccc(OC/C=C(\C#N)CO)cc1`, the Activity came out at 114% in experiment [1]; 80% in experiment [2]; 101% in experiment [3]; 81% in experiment [4]; 79% in experiment [5]; 77% in experiment [6].

Turning to `COc1ccc(C(=O)OC/C=C(\C#N)CO)cc1`, the Activity turned out to be 63% in experiment [1]; 25% in experiment [2]; 100% in experiment [3]; 109% in experiment [4]; 31% in experiment [5]; 86% in experiment [6].
